Results from patent US20250041290A1, “USE OF N-(3-(4-(3-(DIISOBUTYLAMINO)PROPYL)PIPERAZIN-1-YL)PROPYL)-1H-BENZO[d]IMIDAZOL-2-AMINE SUCCINATE SALTS AND SOLVATES THEREOF FOR THE TREATMENT OF MOTOR NEURON DISEASES AND NEUROMUSCULAR JUNCTION DISORDERS” (ALZPROTECT, priority 2021, published 2025).

Key:
[1] = tested on: SOD1^G93A Tg rat spinal cord motor neurons; experiment: Primary culture of SOD1^G93A Tg rat spinal cord motor neurons injured with glutamate, 48 h incubation; type: cell-based; conditions: glutamate 5 μM 20 min; for Protective effects of reference drugs after glutamate injury: concentration not given
Protocol: Female (Sprague Dawley, Janvier) were mated at Neuro-Sys (Gardanne, France) with Tg SOD1^G93A male rats (Taconic Bioscience, US). Pregnant females of 14 days of gestation were used for the culture. The day of the dissection, a piece of each embryo head (˜3 mm^3) was placed in a 2 mL DNase free tube with a new scalpel. The DNA was extracted with the SYBR Green Extract-N-Amp tissue PCR kit (Sigma Aldrich). Briefly, 120 μL of extraction solution was put on each piece of embryo heads. Then, they were incubated for 10 min at room temperature. At the end of this incubation period, the heads were incubated for 5 min at 95° C. Immediately after this last incubation, 100 μL of neutralizing solution was added; each DNA extract was diluted at 1/40 and stored at +4° C. until use. SOD1^G93A gene was determined using genomic fragment with human SOD1 primers (5′-[…]-3′ SEQ ID NO: 1; 5′-[…]-3′ SEQ ID NO:2). The SOD1 primers were diluted at 3 μM in sterile ultrapure water. Briefly, a mix for PCR was prepared with ultrapure water (4 μL per sample), primer at 3 μM (2 μL per sample) and Master Mix (10 μL per sample). In a PCR 96 wells plate, 16 μL of PCR mix was added in each well. 4 μL of each diluted DNA was added according to a plan deposit.
Rat spinal cord motor neurons were cultured as described by Boussicault et al., J Neurosci Res. 2020 December; 98 (12), 2435-50 and Wang et al. Hum. Mol. Genet., 2013 December 1; 22 (23), 4706-19. Pregnant female rats of 14 days of gestation were killed by cervical dislocation. The culture was carried out as described in example 1.
On day 13, culture medium was removed and cultures were exposed to the test compounds: N-(3-(4-(3-(diisobutylamino)propyl)piperazin-1-yl)propyl)-1H-benzo[d]imidazol-2-amine) sesqui-succinate salt Form 1, in comparison to Riluzole and Edaravone, and glutamate (5 μM) for 20 min at 37° C. in defined medium. After glutamate exposure, the cultures were washed with defined medium at 37° C. then placed in fresh culture medium containing the test compound, Riluzole or Edavarone for additional 48h.
• The end point evaluation was carried out as described in example 1.
(§1) The statistical analysis was carried out as described in example 1.

people with ALS = conditions: injected intravenously; small subset of people with ALS; phase 3; cited from earlier work
[2] = tested on: neuromuscular junctions in co-culture of human myoblasts and rat spinal cord explants; experiment: Co-culture of human myoblasts and rat spinal cord explants (neuromuscular junctions) injured with glutamate; type: cell-based; conditions: glutamate 60 μM 20 min, 48 h incubation
[3] = tested on: Rat spinal cord motor neurons (MN); experiment: Rat primary spinal cord motor neurons injured with glutamate, 48 h incubation with compound; type: cell-based; conditions: glutamate 5 μM 20 min
Protocol: Rat spinal cord motor neurons (MN) were cultured as previously described by Boussicault et al., J Neurosci Res. 2020 December; 98 (12), 2435-50 and Wang et al. Hum. Mol. Genet., 2013-12-1; 22 (23), 4706-19. Pregnant female rats of 14 days gestation (Rats Wistar; Janvier Labs France) were killed using a deep anesthesia with CO2 chamber followed by cervical dislocation. Then, embryos (E14) were removed from the uterus and immediately placed in ice-cold L15 Leibovitz medium with a 2% penicillin (10,000 U/mL) and streptomycin (10 mg/mL) solution (PS) and 1% bovine serum albumin (BSA). Spinal cords were removed and placed in ice-cold medium of Leibovitz (L15). Spinal cords were treated for 20 min at 37° C. with a trypsin-Ethylenediaminetetraacetic acid (EDTA) solution at a final concentration of 0.05% trypsin and 0.02% EDTA. The dissociation was stopped by the addition of Dulbecco's modified Eagle's medium (DMEM) with 4.5 g/liter of glucose, containing DNAse I grade II (final concentration 0.5 mg/mL) and 10% fetal calf serum (FCS). Cells were mechanically dissociated by three forced passages through the tip of a 10-mL pipette. Cells were then centrifuged at 515×g for 10 min at +4° C. The supernatant was discarded, and the pellet was resuspended in a defined culture medium consisting of Neurobasal medium with a 2% solution of B27 supplement, 2 mmol/liter of L-glutamine, 2% of PS solution, and 10 ng/ml of brain-derived neurotrophic factor (BDNF). Viable cells were counted in a Neubauer cytometer, using the trypan blue exclusion test. The cells were seeded at a density of 20,000 per well in 96-well plates precoated with poly-L-lysine and cultured at 37° C. in an air (95%)-CO2 (5%) incubator. The medium was changed every 2 days.
On day 13 of culture, glutamate was added to a final concentration of 5 μM diluted in control medium in presence of the sesqui-succinate Form 1 for 20 min. After 20 min, glutamate was washed and fresh culture medium with the sesqui-succinate Form 1 was added for 48 hours.
After 15 days of culture (48h after the glutamate injury), the cell culture supernatant was collected and the spinal cord MNs were fixed by a cold solution of ethanol (95%) and acetic acid (5%) for 5 min at −20° C. for immunostaining. Cells were washed twice in PBS. Cell membranes were permeabilized and non-specific sites were blocked with a solution of PBS containing 0.1% of saponin and 1% FCS for 15 min at room temperature. Then, cells were incubated for 2 hours with: • a) mouse monoclonal antibody anti-microtubule associated protein 2 (MAP-2) at dilution of 1/400 in PBS containing 1% fetal calf serum and 0.1% of saponin. This antibody binds specifically MAP-2 present in cell bodies and neurites of all MNs. […] Cytoplasmic localization of TDP43 was investigated.
Nuclei of neurons were counterstained with the fluorescent dye (Hoechst).
For each condition, 30 pictures (representative of the whole well area) per well were automatically taken using ImageXpress (Molecular Devices) with 20× magnification. All images were taken under the same conditions (exposition time, gain and laser intensity). Analysis of different endpoints, were automatically performed using Custom Module Editor (Molecular Devices). Motoneurons (MAP-2) were distinguished from interneurons (staining MAP-2) using the following morphological criteria: a cell body diameter […] and the presence of a minimum of three neuritic processes (Ferraiuolo et al. Brain 2011:134; 2627-2641).
The endpoints were: • survival of MNs (MAP-2 staining number of MNs) • neurite network of MNs (MAP-2 staining, total neurite length expressed in μm) • cytoplasmic TDP43 (extranuclear, eTDP43) in MAP-2 positive MNs (overlapping between MAP-2 and cytoplasmic TDP-43 in μm^2). Results are expressed as the ratio of the overlapping MAP-2/TDP-43 per number of MNs.
All values are expressed as mean+/−SEM. Statistical analyses were performed using one-way ANOVA followed by PLSD Fisher test. […]

[4] = tested on: Rat spinal cord motor neurons (MN); experiment: Rat primary spinal cord motor neurons injured with glutamate, 24 h pre-incubation + 24 h post-injury incubation; type: cell-based
Protocol: The culture was carried out as described in example 1.
On day 12 of culture, primary motor neurons were treated with the sesqui-succinate Form 1 for 24 hours. On day 13 of culture, glutamate was added to a final concentration of 5 µM diluted in control medium in presence of the sesqui-succinate salt Form 1 for 20 min. After 20 min, glutamate was washed and fresh culture medium with the sesqui-succinate Form 1 was added for an additional 24 hours.
The end point evaluation was carried out as described in example 1.
as §1

[5] = 30 nM to 300 nM, 48 h incubation
[6] = 30 nM to 300 nM, 24 h pre-incubation + 24 h incubation

Compound: CC1=NN(c2ccccc2)C(=O)C1 [Edaravone, reference compound]
- Protective effects of reference drugs after glutamate injury ([1]; FIG. 9): protective effects
- Decline of ALS Functional Rating Scale-Revised score compared with placebo (people with ALS): significantly smaller decline

Compound: Nc1nc2ccc(OC(F)(F)F)cc2s1 [Riluzole, reference compound]
- Protective effects of reference drugs after glutamate injury ([1]; FIG. 9): protective effects
- Protective effects of reference drug after glutamate injury ([2]; concentration not given, FIG. 10): protective effects

Compound: N-(3-(4-(3-(diisobutylamino)propyl)piperazin-1-yl)propyl)-1H-benzo[d]imidazol-2-amine sesqui-succinate salt [sesqui-succinate salt Form 1]
- Motor neuron survival (number of MAP-2 positive MNs), mean, percentage of control ([3]; 30 nM (maximal effect), then 48 h with compound, glutamate alone mean 58%, FIG. 7A): 79%
- Effect on motor neuron survival compared to the glutamate condition [3, 5]: positive and significant effect
- Effect on neurite network after glutamate injury [3, 5]: able to improve the neurite network
- Neurite network integrity (MAP-2 total neurite length), mean, percentage of control ([3]; 100 nM (maximal effect), 48 h incubation, glutamate alone mean 62%, FIG. 7B): 77%
- Reduction of accumulation of TDP-43 in the cytoplasm (extranuclear TDP-43) ([3]; 300 nM, 48 h incubation, glutamate alone mean 135% of control, FIG. 7C): up to 17%
- Effect on accumulation of TDP-43 in the cytoplasm (extranuclear TDP-43) ([3]; 30 to 300 nM, 48 h incubation): significantly reduce
- Protective effect on neuronal survival, dose relation ([1]; 3 nM to 100 nM): dose-dependent
- Protective effect on the distribution of TDP-43, dose relation ([1]; 3 nM to 100 nM): dose-dependent
- Neuroprotection (number of MNs, neurite network, TDP-43 distribution) after glutamate injury ([1]; 3 nM to 100 nM, FIG. 9): neuroprotective
- Protective effects in comparison to Riluzole and Edaravone ([1]; 100 nM): comparable to those of Riluzole or Edaravone
- Neuroprotective effects on neuromuscular junctions and neurite network ([2]; 300 nM): neuroprotective effects on a dose-dependent manner
- Number of NMJs ([2]; 300 nM, versus glutamate, FIG. 10A): increased
- Total area of NMJs ([2]; 300 nM, versus glutamate, FIG. 10B): increased
- Total MNs neurite network (NFH) ([2]; 300 nM, versus glutamate, FIG. 10C): increased
- Protective effects in comparison to Riluzole [2]: comparable to those of Riluzole
- Effect on motor neuron survival compared to the glutamate condition [4, 6]: positive and significant effect
- Effect on neurite network after glutamate damage [4, 6]: able to protect the neurite network
- Reduction of abnormal distribution of TDP-43 (extranuclear TDP-43) ([4]; 30 nM to 300 nM, 24 h pre-incubation + 24 h incubation, glutamate alone mean 139% of control, FIG. 8C): up to 14%
- Neurite network integrity, mean, percentage of control ([4]; 300 nM (maximal effect), 24 h pre-incubation + 24 h incubation, glutamate alone mean 60%, FIG. 8B): 81%
- Motor neuron survival, mean, percentage of control ([4]; 300 nM (maximal effect), 24 h pre-incubation, glutamate 5 µM 20 min, 24 h post-injury incubation, glutamate alone mean 62%, FIG. 8A): 79%
